Laboratory results: US20070249620A1, “Urea Derivative” (priority 2004, published 2007)

Experiments:
[1] = target: T1, mouse DGAT1 (Mus musculus, UniProt Q9Z2A7); experiment: DGAT1 inhibitory effect test (microsome fraction, [14C]-oleoyl-CoA, triglyceride radioactivity by TLC); assay type: biochemical; conditions: 0.5 h; concentration of the test compound 0.1 μg/ml; mouse DGAT1 microsomes, 23° C., 30 minutes; read-out: Inhibitory ratio
T1 construct: made in house; host or cells: insect cells (High Five, Sf9, Sf21, etc.), baculovirus expression system (Invitrogen)
T1 sequence (Q9Z2A7 1-498): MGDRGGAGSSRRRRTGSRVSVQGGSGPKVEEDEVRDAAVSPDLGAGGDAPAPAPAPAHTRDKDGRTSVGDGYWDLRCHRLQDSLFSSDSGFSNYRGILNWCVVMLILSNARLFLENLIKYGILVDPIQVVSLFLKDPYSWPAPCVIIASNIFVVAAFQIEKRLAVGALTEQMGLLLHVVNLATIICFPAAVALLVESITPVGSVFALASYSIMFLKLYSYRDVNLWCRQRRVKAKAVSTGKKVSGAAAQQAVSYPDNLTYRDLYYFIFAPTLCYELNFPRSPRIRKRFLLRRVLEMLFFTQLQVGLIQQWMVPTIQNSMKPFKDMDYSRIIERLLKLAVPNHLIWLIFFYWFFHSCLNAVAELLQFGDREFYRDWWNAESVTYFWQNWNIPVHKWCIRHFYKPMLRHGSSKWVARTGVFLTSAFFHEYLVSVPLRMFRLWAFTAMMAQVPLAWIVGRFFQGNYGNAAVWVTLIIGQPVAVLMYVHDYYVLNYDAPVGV
Procedure: The cDNA which encodes mouse DGAT1 was cloned from a mouse cDNA library by polymerase chain reaction (hereinafter referred to as “PCR”) and introduced into an insect cell virus vector (baculovirus expression system, Invitrogen). After insect cells (High Five, Sf9, Sf21, etc., Invitrogen) were infected with the virus, the cells were collected in buffer A [0.1M sucrose, 50 mM KCl, 40 mM potassium phosphate (pH 7.4), 30 mM EDTA, 1% Protease inhibitor cocktail (SIGMA, P-8340)] and crushed with a Polytron homogenizer. The supernatant obtained by subjecting the homogenate to low speed centrifugal processing (10,000 ×g, 30 minutes) was further subjected to higher-speed centrifugal processing (100,000 ×g, 60 minutes) and the precipitate was resuspended in buffer A as the microsome fraction and used as DGAT1 enzyme. The DGAT1 enzyme was divided into small volumes and stored at −80° C.
(2) DGAT1 Inhibitory Effect Test
The reaction liquid of the following composition [175 mM Tris-HCl (pH 8.0), 8 mM MgCl2, 1 mg/ml BSA, 0.5 mM 1,2-dioleoyl-sn-glycerol (EtOH solution of 10-fold concentration, 10% added), 30 μM[14C]-oleoyl-CoA (about 50 mCi/mmol), 0.5% triton X-100, DGAT1 enzyme (10 μg) obtained in Test Example 1(1), test compound or vehicle (DMSO/MeOH, 7:3 solution, 5% added), total volume 50 μl] was incubated at room temperature (23° C.) for 30 minutes. A reaction terminating solution (70 μl) consisting of isopropanol/1-heptane/water (80:20:2, v/v/v) was added to the reaction solution and stirred, and subsequently stirred with water (30 μl) and 1-heptane (100 μl). The 1-heptane layer (50 μl) was spotted onto a TLC plate and developed with a developing solvent consisting of 1-hexane/diethyl ether/acetic acid (85:15:1, v/v/v). Radioactivity of triglyceride fraction was quantified by BAS2000 bio image analyzer (Fuji Film) and the inhibitory effect of the test compounds was calculated by the following formula through comparison with control. Here, radioactivity at no reaction (0 minutes incubation) was assumed as background. Inhibitory ratio=100−[(Radioactivity when test compound was added)−(Background)]/[(Radioactivity by control)−(Background)]×100

Row | melting point [°C] | inhibition at 0.1 µg/mL [1] [%] | Compound
1 | 164 to 167 | ≥ 50 | O=C(Nc1ccc2c(c1)CCN(C(=O)Nc1ccc(OCC(O)CO)cc1Cl)C2)Nc1ccccc1F (stereo not drawn) [Example 290, 6-[3-(2-fluoro-phenyl)-ureido]-3,4-dihydro-1H-isoquinoline-2-carboxylic acid [2-chloro-4-(2,3-dihydroxy-propoxy)-phenyl]-amide]
2 | 105 to 110 | ≥ 50 | COc1cc(NC(=O)Nc2ccc3c(c2)CCN(C(=O)Nc2ccc(OCCO)cc2Cl)C3)cc(OC)c1 [Example 266, 6-[3-(3,5-dimethoxy-phenyl)-ureido]-3,4-dihydro-1H-isoquinoline-2-carboxylic acid [2-chloro-4-(2-hydroxy-ethoxy)-phenyl]-amide]
3 | 134 to 139 | ≥ 50 | CCOc1cccc(NC(=O)Nc2ccc3c(c2)CCN(C(=O)Nc2ccc(OCC(O)CO)cc2Cl)C3)c1 (stereo not drawn) [Example 291, 6-[3-(3-ethoxy-phenyl)-ureido]-3,4-dihydro-1H-isoquinoline-2-carboxylic acid [2-chloro-4-(2,3-dihydroxy-propoxy)-phenyl]-amide]
4 | 213 to 217 | ≥ 50 | O=C(Nc1ccc(N2CCN(C(=O)Nc3ccc(OCCO)cc3Cl)CC2)cc1)Nc1ccccc1F [Example 255, 4-{4-[3-(2-fluoro-phenyl)-ureido]-phenyl}-piperazine-1-carboxylic acid [2-chloro-4-(2-hydroxy-ethoxy)-phenyl]-amide]
5 | 214 to 215 | ≥ 50 | CCOc1ccc(Cl)cc1NC(=O)Nc1ccc(N2CCN(C(=O)Nc3ncccc3C)CC2)nc1 [Example 299, 4-{5-[3-(5-chloro-2-ethoxy-phenyl)-ureido]-pyridin-2-yl}-piperazine-1-carboxylic acid (3-methyl-pyridin-2-yl)-amide]
6 | 135 to 137 | ≥ 50 | COc1ccc(C)cc1NC(=O)Nc1ccc(C2=CCN(C(=O)Nc3ccc(OCC(O)CO)cc3C(F)(F)F)CC2)cc1 (stereo not drawn) [Example 282, 4-{4-[3-(2-methoxy-5-methyl-phenyl)-ureido]-phenyl}-3,6-dihydro-2H-pyridine-1-carboxylic acid [4-(2,3-dihydroxy-propoxy)-2-trifluoromethyl-phenyl]-amide]
7 | 180 to 185 | ≥ 50 | CCOc1ccc(F)cc1NC(=O)Nc1ccc(N2CCN(C(=O)Nc3ncccc3C)CC2)nc1 [Example 300, 4-{5-[3-(2-ethoxy-5-fluoro-phenyl)-ureido]-pyridin-2-yl}-piperazine-1-carboxylic acid (3-methyl-pyridin-2-yl)-amide]
8 | 188 to 190 | ≥ 50 | COc1cc(NC(=O)Nc2ccc(N3CCN(C(=O)Nc4ncccc4C)CC3)cc2)cc(OC)c1 [Example 306, 4-{4-[3-(3,5-dimethoxy-phenyl)-ureido]-phenyl}-piperazine-1-carboxylic acid (3-methyl-pyridin-2-yl)-amide]
9 | 125 to 128 | ≥ 50 | COc1ccc(C)cc1NC(=O)Nc1ccc(C2=CCN(C(=O)Nc3ccc(OCC(O)CO)cc3Cl)CC2)cc1 (stereo not drawn) [Example 281, 4-{4-[3-(2-methoxy-5-methyl-phenyl)-ureido]-phenyl}-3,6-dihydro-2H-pyridine-1-carboxylic acid [2-chloro-4-(2,3-dihydroxy-propoxy)-phenyl]-amide]

Second part, the compound before the results:

Row | Compound | melting point [°C] | inhibition at 0.1 µg/mL [1] [%]
10 | COc1ccc(C)cc1NC(=O)Nc1ccc(N2CCN(C(=O)Nc3c(C)cc(Cl)cc3C)CC2)cc1 [Example 174, 4-{4-[3-(2-methoxy-5-methyl-phenyl)-ureido]-phenyl}-piperazine-1-carboxylic acid (4-chloro-2,6-dimethyl-phenyl)-amide] | 238 to 240 | ≥ 50
11 | O=C(Nc1ccc(N2CCN(C(=O)Nc3ccc(OCCO)cc3C(F)(F)F)CC2)cc1)Nc1ccccc1OC(F)F [Example 245, 4-{4-[3-(2-difluoromethoxy-phenyl)-ureido]-phenyl}-piperazine-1-carboxylic acid [4-(2-hydroxy-ethoxy)-2-trifluoromethyl-phenyl]-amide] | 118 to 120 | ≥ 50
12 | CCc1ccccc1NC(=O)Nc1ccc(N2CCN(C(=O)Nc3c(C)cccc3Cl)CC2)cc1 [Example 128, 4-{4-[3-(2-ethyl-phenyl)-ureido]-phenyl}-piperazine-1-carboxylic acid (2-chloro-6-methyl-phenyl)-amide] | 217 to 219 | ≥ 50
13 | CCOc1ccc(Cl)cc1NC(=O)Nc1ccc(N2CCN(C(=O)Nc3ccc(OC)cc3C)CC2)cc1 [Example 106, 4-{4-[3-(5-chloro-2-ethoxy-phenyl)-ureido]-phenyl}-piperazine-1-carboxylic acid (4-methoxy-2-methyl-phenyl)-amide] | 210 to 213 | ≥ 50
14 | COc1ccc(C)cc1NC(=O)Nc1ccc(N2CCN(C(=O)Nc3c(C)cccc3CO)CC2)cc1 [Example 185, 4-{4-[3-(2-methoxy-5-methyl-phenyl)-ureido]-phenyl}-piperazine-1-carboxylic acid (2-hydroxymethyl-6-methyl-phenyl)-amide] | 192 to 194 | ≥ 50
15 | COc1ccc(F)cc1NC(=O)Nc1ccc(N2CCN(C(=O)Nc3ccc(OCCO)cc3C(F)(F)F)CC2)cc1 [Example 212, 4-{4-[3-(5-fluoro-2-methoxy-phenyl)-ureido]-phenyl}-piperazine-1-carboxylic acid [4-(2-hydroxy-ethoxy)-2-trifluoromethyl-phenyl]-amide] | 140 to 141 | ≥ 50
16 | CSc1ccccc1NC(=O)Nc1ccc(N2CCN(C(=O)Nc3ccc(OCCO)cc3C(F)(F)F)CC2)cc1 [Example 241, 4-{4-[3-(2-methylsulfanyl-phenyl)-ureido]-phenyl}-piperazine-1-carboxylic acid [4-(2-hydroxy-ethoxy)-2-trifluoromethyl-phenyl]-amide] | 115 to 116 | ≥ 50
17 | CCOc1ccc(F)cc1NC(=O)Nc1ccc(N2CCN(C(=O)Nc3c(C)cccc3C)CC2)cc1 [Example 92, 4-{4-[3-(2-ethoxy-5-fluoro-phenyl)-ureido]-phenyl}-piperazine-1-carboxylic acid (2,6-dimethyl-phenyl)-amide] | 205 to 206 | ≥ 50
18 | COc1ccc(F)cc1NC(=O)Nc1ccc(N2CCN(C(=O)Nc3ccc(C)cc3Cl)CC2)nc1 [Example 154, 4-{5-[3-(5-fluoro-2-methoxy-phenyl)-ureido]-pyridin-2-yl}-piperazine-1-carboxylic acid (2-chloro-4-methyl-phenyl)-amide] | 217 to 218 | ≥ 50
19 | COc1ccc(Cl)cc1NC(=O)Nc1ccc(N2CCN(C(=O)Nc3ccccc3Cl)CC2)cc1 [Example 78, 4-{4-[3-(5-chloro-2-methoxy-phenyl)-ureido]-phenyl}-piperazine-1-carboxylic acid (2-chloro-phenyl)-amide] | 231 to 233 | ≥ 50
20 | COc1ccc(C)cc1NC(=O)Nc1ccc(N2CCN(C(=O)Nc3cc(OCCO)ccc3Cl)CC2)nc1 [Example 238, 4-{5-[3-(2-methoxy-5-methyl-phenyl)-ureido]-pyridin-2-yl}-piperazine-1-carboxylic acid [2-chloro-5-(2-hydroxy-ethoxy)-phenyl]-amide] | 132 to 134 | ≥ 50
21 | CCOc1ccccc1NC(=O)Nc1ccc(N2CCN(C(=O)Nc3c(C)cccc3C)CC2)cc1 [Example 116, 4-{4-[3-(2-ethoxy-phenyl)-ureido]-phenyl}-piperazine-1-carboxylic acid (2,6-dimethyl-phenyl)-amide] | 204 to 205 | ≥ 50
